According to patent US20250120967A1, “TYROSINE KINASES INHIBITORS AND USES THEREOF” (GREAT NOVEL THERAPEUTICS BIOTECH & MEDICALS CORPORATION, priority 2023, published 2025):

Assays:
[1] = test system: NCI-60 human cancer cell lines; assay: NCI-60 screen (SRB), panel average; type: cell-based; conditions: average over the NCI-60 cell lines of the table
Experimental: The human tumor cell lines of the cancer screening panel are grown in RPMI 1640 medium containing 5% fetal bovine serum and 2 mM L-glutamine. For a typical screening experiment, cells are inoculated into 96 well microtiter plates in 100 μL at plating densities ranging from 5,000 to 40,000 cells/well depending on the doubling time of individual cell lines. After cell inoculation, the microtiter plates are incubated at 37° C., 5% CO2, 95% air and 100% relative humidity for 24 h prior to addition of experimental drugs. After 24 h, two plates of each cell line are fixed in situ with TCA, to represent a measurement of the cell population for each cell line at the time of drug addition (Tz). Experimental drugs are solubilized in dimethyl sulfoxide at 400-fold the desired final maximum test concentration and stored frozen prior to use. At the time of drug addition, an aliquot of frozen concentrate is thawed and diluted to twice the desired final maximum test concentration with complete medium containing 50 µg/ml gentamicin. An additional four, 10-fold or M log serial dilutions are made to provide a total of five drug concentrations plus control. Aliquots of 100 μl of these different drug dilutions are added to the appropriate microtiter wells already containing 100 μl of medium, resulting in the required final drug concentrations. Following drug addition, the plates are incubated for an additional 48 h at 37° C., 5% CO2, 95% air, and 100% relative humidity. For adherent cells, the assay is terminated by the addition of cold TCA. Cells are fixed in situ by the gentle addition of 50 μl of cold 50% (w/v) TCA (final concentration, 10% TCA) and incubated for 60 minutes at 4° C. The supernatant is discarded, and the plates are washed five times with tap water and air dried. Sulforhodamine B (SRB) solution (100 l) at 0.4% (w/v) in 1% acetic acid is added to each well, and plates are incubated for 10 minutes at room temperature. […] Bound stain is subsequently solubilized with 10 mM trizma base, and the absorbance is read on an automated plate reader at a wavelength of 515 nm. […]

EPHB2 = biological target: T1, EPHB2 (Homo sapiens, UniProt P29323); assay: Tyrosine kinase inhibition assay; type: biochemical; conditions: single concentration 1.0 μM, read-out: percent inhibition
T1 sequence (P29323 19-1055): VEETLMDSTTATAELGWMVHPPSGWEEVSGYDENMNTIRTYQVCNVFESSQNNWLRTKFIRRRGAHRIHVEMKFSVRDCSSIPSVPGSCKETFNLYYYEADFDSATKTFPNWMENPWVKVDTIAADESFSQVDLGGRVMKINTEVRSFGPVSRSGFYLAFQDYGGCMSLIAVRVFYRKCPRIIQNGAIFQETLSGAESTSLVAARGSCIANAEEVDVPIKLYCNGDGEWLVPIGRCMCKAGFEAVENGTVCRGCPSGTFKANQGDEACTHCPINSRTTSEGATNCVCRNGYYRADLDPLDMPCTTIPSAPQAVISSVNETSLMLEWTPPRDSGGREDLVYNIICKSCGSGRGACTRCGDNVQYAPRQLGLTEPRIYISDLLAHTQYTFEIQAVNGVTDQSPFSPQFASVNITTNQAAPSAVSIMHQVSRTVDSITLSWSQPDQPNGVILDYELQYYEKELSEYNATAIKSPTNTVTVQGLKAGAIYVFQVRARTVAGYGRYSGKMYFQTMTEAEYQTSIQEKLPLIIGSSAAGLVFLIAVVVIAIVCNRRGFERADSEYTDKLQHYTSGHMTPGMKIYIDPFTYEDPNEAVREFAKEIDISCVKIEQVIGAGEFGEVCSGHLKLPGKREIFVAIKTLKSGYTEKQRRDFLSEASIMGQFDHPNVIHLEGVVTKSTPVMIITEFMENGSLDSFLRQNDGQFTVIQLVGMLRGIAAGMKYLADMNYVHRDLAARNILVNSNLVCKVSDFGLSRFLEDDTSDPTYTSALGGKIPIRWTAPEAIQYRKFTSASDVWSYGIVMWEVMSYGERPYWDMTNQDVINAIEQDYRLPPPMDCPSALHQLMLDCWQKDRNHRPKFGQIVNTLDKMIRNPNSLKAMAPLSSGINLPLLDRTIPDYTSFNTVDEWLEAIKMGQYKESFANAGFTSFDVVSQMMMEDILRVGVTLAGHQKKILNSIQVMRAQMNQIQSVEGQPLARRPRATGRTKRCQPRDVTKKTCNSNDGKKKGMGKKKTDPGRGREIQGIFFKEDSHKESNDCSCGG

ABL1 = ABL1 (Homo sapiens, UniProt P00519); assay: Tyrosine kinase inhibition assay; type: biochemical; conditions: single concentration 1.0 μM, read-out: percent inhibition
KIT = KIT (Homo sapiens, UniProt P10721); assay: Tyrosine kinase inhibition assay; type: biochemical; conditions: single concentration 1.0 μM, read-out: percent inhibition
Experimental: Tyrosine kinase inhibition assays were performed at ThermoFisher Life Technologies (Madison, WI, USA) using standard protocols (SelectScreen Biochemical Profiling Service, Thermo Fisher Scientific). ATP concentrations used were at the apparent Km. Test compounds were screened in 1% dimethylsulffoxide (DMSO) (final concentration) in the well. For 10-point titrations, 3-fold serial dilutions were conducted from the starting concentration of […]. All Peptide/Kinase Mixtures were diluted to a 2× working concentration in the appropriate Kinase Buffer. All ATP Solutions were diluted to a 4× working concentration in Kinase Buffer (50 mM HEPES pH 7.5, 0.01% BRIJ-35, 10 mM MgCl2, 1 mM EGTA). The apparent ATP Km was previously determined using a Z′-LYTE assay. The Development Reagent was diluted in Development Buffer.
The inhibition activities of compounds were determined in biochemical assays using single concentration (1.0 μM) measurements. The results were provided as percent inhibition values. […]

Chain of ABL1 (P00519 whole entry): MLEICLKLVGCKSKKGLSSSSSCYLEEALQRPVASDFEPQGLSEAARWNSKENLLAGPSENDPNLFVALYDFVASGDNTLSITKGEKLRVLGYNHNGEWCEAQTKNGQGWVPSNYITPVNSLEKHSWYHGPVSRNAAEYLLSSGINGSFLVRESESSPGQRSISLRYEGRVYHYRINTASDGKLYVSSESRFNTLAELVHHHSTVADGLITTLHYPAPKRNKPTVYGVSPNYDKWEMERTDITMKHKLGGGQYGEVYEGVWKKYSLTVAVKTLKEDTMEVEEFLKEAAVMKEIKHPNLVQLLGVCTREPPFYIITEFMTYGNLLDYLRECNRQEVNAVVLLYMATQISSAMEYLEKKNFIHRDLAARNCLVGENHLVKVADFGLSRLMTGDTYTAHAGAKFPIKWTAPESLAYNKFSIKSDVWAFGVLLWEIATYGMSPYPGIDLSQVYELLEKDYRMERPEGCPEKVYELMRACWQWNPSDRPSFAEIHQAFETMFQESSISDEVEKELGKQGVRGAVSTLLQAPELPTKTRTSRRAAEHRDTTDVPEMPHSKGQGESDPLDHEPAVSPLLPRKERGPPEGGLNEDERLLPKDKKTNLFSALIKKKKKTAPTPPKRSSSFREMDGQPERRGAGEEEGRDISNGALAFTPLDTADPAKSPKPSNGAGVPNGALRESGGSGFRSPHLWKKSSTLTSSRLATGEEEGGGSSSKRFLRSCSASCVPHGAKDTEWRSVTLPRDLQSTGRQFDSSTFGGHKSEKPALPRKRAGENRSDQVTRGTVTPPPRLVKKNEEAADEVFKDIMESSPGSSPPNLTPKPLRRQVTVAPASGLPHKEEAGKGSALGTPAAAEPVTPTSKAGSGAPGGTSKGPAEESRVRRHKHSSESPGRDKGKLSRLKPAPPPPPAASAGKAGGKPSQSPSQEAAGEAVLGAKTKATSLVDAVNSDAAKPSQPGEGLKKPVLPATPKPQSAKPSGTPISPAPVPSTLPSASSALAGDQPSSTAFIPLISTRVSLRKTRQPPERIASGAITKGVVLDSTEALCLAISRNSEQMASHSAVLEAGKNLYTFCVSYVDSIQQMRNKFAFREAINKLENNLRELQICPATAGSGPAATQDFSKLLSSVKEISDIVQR
Chain of KIT (P10721 26-976): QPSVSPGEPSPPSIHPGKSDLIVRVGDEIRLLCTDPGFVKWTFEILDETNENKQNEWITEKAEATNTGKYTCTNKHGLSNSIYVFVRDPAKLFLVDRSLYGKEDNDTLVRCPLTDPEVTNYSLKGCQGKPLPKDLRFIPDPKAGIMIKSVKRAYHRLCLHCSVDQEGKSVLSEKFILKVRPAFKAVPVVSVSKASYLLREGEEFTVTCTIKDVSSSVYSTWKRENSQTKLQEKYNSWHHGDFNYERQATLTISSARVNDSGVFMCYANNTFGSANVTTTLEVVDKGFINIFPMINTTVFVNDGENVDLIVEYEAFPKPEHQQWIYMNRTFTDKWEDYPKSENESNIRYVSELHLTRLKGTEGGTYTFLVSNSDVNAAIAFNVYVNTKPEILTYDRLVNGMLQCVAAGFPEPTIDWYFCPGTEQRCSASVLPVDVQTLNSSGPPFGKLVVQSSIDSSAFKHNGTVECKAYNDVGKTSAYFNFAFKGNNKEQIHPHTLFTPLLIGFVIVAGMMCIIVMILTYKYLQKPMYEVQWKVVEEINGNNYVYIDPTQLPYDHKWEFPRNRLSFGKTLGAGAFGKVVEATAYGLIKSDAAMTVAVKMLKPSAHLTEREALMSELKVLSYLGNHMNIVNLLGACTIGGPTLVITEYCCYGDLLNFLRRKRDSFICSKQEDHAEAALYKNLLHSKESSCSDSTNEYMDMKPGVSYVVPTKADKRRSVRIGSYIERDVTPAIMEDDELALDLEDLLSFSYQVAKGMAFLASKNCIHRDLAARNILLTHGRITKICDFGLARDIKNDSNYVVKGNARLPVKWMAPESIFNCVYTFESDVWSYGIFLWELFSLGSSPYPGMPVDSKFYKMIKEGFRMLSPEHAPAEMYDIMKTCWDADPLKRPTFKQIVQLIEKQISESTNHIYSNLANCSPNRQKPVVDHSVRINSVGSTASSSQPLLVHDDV

| SMILES | GI50 [1] [µM] | inhibition at 1 µM (EPHB2) [%] | inhibition at 1 µM (ABL1) [%] | inhibition at 1 µM (KIT) [%] |
| --- | --- | --- | --- | --- |
| COc1cc2nccc(Oc3ccc(NC(=O)C4(C(=O)Nc5ccc(F)cc5)CC4)cc3F)c2cc1Oc1ccc(N)cc1F [Cbo-23] | 0.73 | 100 | 58 | 51 |
| COc1cc2nccc(Oc3ccc(NC(=O)C4(NC(=O)c5ccc(F)cc5)CC4)cc3F)c2cc1Oc1ccc(N)cc1F [Cbo-10] | 1.57 | 64 | 32 | 48 |
| COc1cc2nccc(Oc3ccc(NC(=O)C4(NC(=O)c5ccc(F)cc5)CC4)cc3F)c2cc1OC [Cbo-02, N-(1-((4-((6,7-diMethoxyquinolin-4-yl)oxy)-3-fluorophenyl)carbamoyl)cyclopropyl)-4-fluorobenzamide] | 2.56 | 13 | 24 | 33 |
| COc1cc2nccc(Oc3ccc(NC(=O)C4(NC(=O)c5ccc(F)cc5)CC4)cc3F)c2cc1Oc1c(F)cc(N)cc1F [Cbo-14] | – | 77 | 44 | 45 |
